In paper PMC6440464 (PeerJ, 2019):
“And” between values parts separate entries of the source, which are not always exact repeats. Equal entries are not always repeated.

Columns and labels:
lipid peroxidation = system: lipid peroxidation; parameters: method as in Shirai et al., 2001; conditions: 10 mM; ref Shirai et al., 2001; cited from earlier work
[1] = Pharmacokinetics study after separate oral administration in rats (HPLC-MS of plasma); type: in vivo, Sprague-Dawley rats; conditions: for Plasma concentrations: individual rats NO. 1-5; for AUC(0-t) / Cmax / MRT(0-t) / Tmax / t1/2z / CLz/F: labelled substance = analyte, individual rats No1-No5
Procedure: A total of 15 SPF Sprague-Dawley rats (SD, male, 190–210 g) were provided by Sino-British Sippr/BK Lab Animal Company Ltd. (Shanghai, China). The rats were kept in standard conditions (22–26 °C; 40–60% relative humidity; 12 h light/dark cycle). Throughout the rearing period, the animals had access to food and water ad libitum. Animal experiments were conducted in accordance with the standard ethical guidelines of the Laboratory Animal Management Committee of Jiangsu Province (SYXK (SU) 2016-0011).
Following 1 week of adaptation, the rats were fasted for about 12 h before dosing, with free access to water. […] After administration of the first dose, blood samples were taken from the retro-orbital vein at 0, 5, 15, 30, 60, 90, 120, 180, 240, 360, 480, and 1,440 min and collected in heparinized tubes. The samples were centrifuged at 3,500 rpm for 10 min at 4 °C and the plasma was stored at −80 °C until analysis.
An Agilent 1,200 series HPLC system (Agilent Technologies, Waldbronn, Germany) equipped with a quaternary pump on-line degasser, auto-sampler and column oven, and an SL G1946D quadruple mass spectrometer (Agilent Technologies, Santa Clara, CA, USA) equipped with an electrospray ionization (ESI) source, were used for separation and detection. Data were acquired and analyzed using Agilent ChemStation Software Version A.01.00 (Agilent Technologies, Santa Clara, CA, USA).
The separation was carried out with an Amethyst C18-H column (150 × 4.6 mm, 5 μm, Sepax Technologies, Newark, DE, USA) with a guard column SB-C18 (10 × 4.6 mm, 5 μm, Phenomenex Technologies, Torrance, USA) at a constant temperature of 25 °C.
The mass spectra were acquired using ESI interfaced to a single quadrupole mass spectrometer. The ionization conditions were as follows: drying gas (N2) flow rate of 11 L/min, drying gas temperature of 350 °C, nebulizing gas (N2) pressure of 35 psi, capillary voltage of 3,500 V, quad temperature of 100 °C, and fragment voltage of 110 V. A series of m/z were monitored using a timed program according to the retention times and characteristic ions for the corresponding HPLC-MS peak obtained by scanning from m/z 100–1,000 in the standard sample.
Briefly, an aliquot of plasma sample (100 μL) was spiked with 5% formic acid (10 μL) in centrifuge tube. Subsequently, hydrochloric acid (2 mol/L, 10 μL) and IS solution (960.00 ng/mL, 20 μL) were added. Then ethyl acetate/n-butyl alcohol (1:1 v/v; 1,000 μL) was used to extract the components. The samples were then homogenized by vortex mixing and centrifuged for 10 min at 14,000 rpm. After centrifugation, 800 μL of supernatant was transferred to another centrifuge tube and the sample was evaporated to dryness. The residues were dissolved in 100 μL of methanol and centrifuged for 10 min at 12,000 rpm. 50 μL of the supernatant was transferred to the vial and an aliquot of 5 μL was injected into the HPLC-MS system for analysis.
DAS 2.0 (Chinese Pharmacological Association, Shanghai, China) was used to calculate the pharmacokinetic parameters using the non-compartment model, including the area under curve (AUC), mean residence time (MRT), half-life ( t1/2z), clearance rate (CL), maximum plasma concentration (Cmax), and time (Tmax). All results are expressed as mean ± standard deviation (SD). One way analysis of variance followed by […] was used for comparison of different groups using Graph pad prism 5 software. A p-value of <0.05 was considered statistically significant.

[2] = IQ group (oral IQ 50 mg/kg), rat plasma
[3] = QG group (oral QG 50 mg/kg), rat plasma
[4] = Qr group (oral Qr 50 mg/kg), rat plasma

Plasma concentrations ([1]; IQ group (oral IQ 50 mg/kg), 5 min): 0.7646 µg/mL and 1.0569 µg/mL | Tmax [1, 2]: 30 min | Detection in rat plasma ([1]; IQ group: oral IQ 50 mg/kg): measured | Detection in rat plasma ([1]; QG group: oral QG 50 mg/kg): could be detected in rat plasma | CL ([1]; QG group: oral QG 50 mg/kg, rat plasma, mean ± SD, n = 5): 71 ± 57 mL/min/kg | Tmax [1, 4]: 30 min and 60 min (2×) | Detection in rat plasma ([1]; Qr group: oral Qr 50 mg/kg): detected
SMILES: O=C(O)[C@H]1O[C@@H](Oc2c(-c3ccc(O)c(O)c3)oc3cc(O)cc(O)c3c2=O)[C@H](O)[C@@H](O)[C@@H]1O [QG, Quercetin-3-O-β-D-glucuronide]
Inhibition of lipid peroxidation (lipid peroxidation): can inhibit lipid peroxidation | Plasma concentrations ([1]; IQ group (oral IQ 50 mg/kg), 120 min): 0.6158 µg/mL and 0.5082 µg/mL and 0.7807 µg/mL and 0.6334 µg/mL | Plasma concentrations ([1]; IQ group (oral IQ 50 mg/kg), 180 min): 0.8736 µg/mL and 0.5334 µg/mL and 0.3826 µg/mL and 0.3965 µg/mL and 0.7922 µg/mL | Plasma concentrations ([1]; IQ group (oral IQ 50 mg/kg), 240 min): 0.2228 µg/mL and 0.5709 µg/mL and 0.5714 µg/mL and 0.4349 µg/mL and 0.8190 µg/mL | Plasma concentrations ([1]; IQ group (oral IQ 50 mg/kg), 360 min): 0.1194 µg/mL and 0.8107 µg/mL and 0.4137 µg/mL and 0.6925 µg/mL and 0.8505 µg/mL | Plasma concentrations ([1]; IQ group (oral IQ 50 mg/kg), 480 min): 0.4225 µg/mL and 0.4165 µg/mL and 0.1673 µg/mL and 0.2461 µg/mL and 0.7377 µg/mL | Plasma concentrations ([1]; IQ group (oral IQ 50 mg/kg), 1440 min): 0.0935 µg/mL and 0.0847 µg/mL and 0.0809 µg/mL and 0.0651 µg/mL and 0.3494 µg/mL | AUC(0-t) [1, 2]: 597.432 mg·min/L and 994.801 mg·min/L and 564.315 mg·min/L and 660.84 mg·min/L | Cmax [1, 2]: 4534 ng/mL and 5953 ng/mL and 2825 ng/mL and 2800 ng/mL and 3414 ng/mL | MRT(0-t) [1, 2]: 4.64393 h and 8.49298 h and 6.06248 h and 5.82378 h | t1/2z [1, 2]: 7.29975 h and 8.1253 h and 14.3264 h and 6.69975 h and 7.17603 h | Plasma concentrations ([1]; QG group (oral QG 50 mg/kg), 5 min): 0.0814 µg/mL and 0.1791 µg/mL and 0.1562 µg/mL and 0.4345 µg/mL and 0.2229 µg/mL | Plasma concentrations ([1]; QG group (oral QG 50 mg/kg), 120 min): 0.0799 µg/mL and 0.2388 µg/mL and 0.5950 µg/mL and 0.1120 µg/mL and 0.2189 µg/mL | Plasma concentrations ([1]; QG group (oral QG 50 mg/kg), 180 min): 0.7950 µg/mL and 1.4327 µg/mL and 2.4032 µg/mL and 0.2061 µg/mL and 1.3248 µg/mL | Plasma concentrations ([1]; QG group (oral QG 50 mg/kg), 240 min): 1.3178 µg/mL and 2.6305 µg/mL and 2.4984 µg/mL and 0.6490 µg/mL and 1.6470 µg/mL | Plasma concentrations ([1]; QG group (oral QG 50 mg/kg), 360 min): 0.1076 µg/mL and 2.2429 µg/mL and 3.2289 µg/mL and 1.3605 µg/mL and 1.5082 µg/mL | Plasma concentrations ([1]; QG group (oral QG 50 mg/kg), 480 min): 0.0874 µg/mL and 0.7211 µg/mL and 1.7586 µg/mL and 0.4951 µg/mL and 0.6594 µg/mL | Plasma concentrations ([1]; QG group (oral QG 50 mg/kg), 1440 min): 0.0575 µg/mL and 0.2816 µg/mL and 0.1651 µg/mL and 0.1404 µg/mL and 0.1134 µg/mL | AUC(0-t) [1, 3]: 268.635 mg·min/L and 1176.18 mg·min/L and 1861.7 mg·min/L and 635.402 mg·min/L and 871.691 mg·min/L | CLz/F [1, 3]: 0.17 L/min/kg and 0.038 L/min/kg and 0.026 L/min/kg and 0.067 L/min/kg and 0.054 L/min/kg | Cmax [1, 3]: 1318 ng/mL and 2631 ng/mL and 3229 ng/mL and 1365 ng/mL and 1647 ng/mL | MRT(0-t) [1, 3]: 7.8607 h and 7.11965 h and 7.95713 h and 7.028 h | t1/2z [1, 3]: 6.12582 h and 5.27942 h and 8.9772 h and 6.00847 h | Plasma concentrations ([1]; Qr group (oral Qr 50 mg/kg), 5 min): 0.3755 µg/mL and 1.9735 µg/mL and 1.3717 µg/mL and 1.2834 µg/mL | Plasma concentrations ([1]; Qr group (oral Qr 50 mg/kg), 120 min): 1.6399 µg/mL and 0.4649 µg/mL and 2.4126 µg/mL and 2.1713 µg/mL and 0.6055 µg/mL | Plasma concentrations ([1]; Qr group (oral Qr 50 mg/kg), 180 min): 1.1714 µg/mL and 0.4542 µg/mL and 1.7560 µg/mL and 4.1932 µg/mL and 1.1826 µg/mL | Plasma concentrations ([1]; Qr group (oral Qr 50 mg/kg), 240 min): 1.0033 µg/mL and 1.3275 µg/mL and 1.0605 µg/mL and 1.9477 µg/mL and 0.8307 µg/mL | Plasma concentrations ([1]; Qr group (oral Qr 50 mg/kg), 360 min): 1.0844 µg/mL and 1.0457 µg/mL and 0.9781 µg/mL and 1.2903 µg/mL and 0.5532 µg/mL | Plasma concentrations ([1]; Qr group (oral Qr 50 mg/kg), 480 min): 0.9932 µg/mL and 0.4529 µg/mL and 0.7247 µg/mL and 0.7786 µg/mL and 0.5843 µg/mL | Plasma concentrations ([1]; Qr group (oral Qr 50 mg/kg), 1440 min): 0.1552 μg/mL and 0.4031 μg/mL and 0.5308 μg/mL and 0.0000 μg/mL (2×) | AUC(0-t) [1, 4]: 1269.04 mg·min/L and 1058.23 mg·min/L and 1705.01 mg·min/L and 1261.98 mg·min/L and 455.81 mg·min/L | CLz/F [1, 4]: 0.037 L/min/kg and 0.034 L/min/kg (2×) and 0.019 L/min/kg and 0.093 L/min/kg | Cmax [1, 4]: 4415 ng/mL and 6941.3 ng/mL and 9165 ng/mL and 9211 ng/mL and 2540 ng/mL | MRT(0-t) [1, 4]: 6.1781 h and 7.68988 h and 6.69422 h and 2.72245 h and 3.04182 h | t1/2z [1, 4]: 7.30138 h and 12.1634 h and 20.1775 h and 3.02307 h and 2.81598 h
